The values that follow come from patent US20170362243A1, “BIARYLETHER IMIDAZOPYRAZINE BTK INHIBITORS” (MERCK SHARP & DOHME CORP., priority 2014, published 2017).

The structures appear in SMILES notation. pIC50: −log10 of the molar value.

This experiment concerns the target T1, BTK enzyme (recombinant full-length BTK, hBTK) (Homo sapiens, UniProt Q06187).
T1 construct: recombinant protein from baculovirus-transfected Sf9 cells: full-length BTK, 6HIS-tag cleaved; 6HIS (cleaved yes); made in house; host or cells: baculovirus-transfected Sf9 cells
Description: Btk enzyme activity assay, LANCE TR-FRET. In kind it is biochemical. Conditions: 50 pM hBTK, 2 μM biotin-A5-peptide, 25 μM ATP, 60 minute compound & enzyme incubation, read-out: BTK binding IC50. Here is the method: BTK enzymatic activity was determined with the LANCE (Lanthanide Chelate Excite) TR-FRET (Time-resolved fluorescence resonance energy transfer) assay. In this assay, the potency (IC50) of each compound was determined from an eleven point (1:3 serial dilution; final compound concentration range in assay from 1 μM to 0.017 nM) titration curve using the following outlined procedure. To each well of a black non-binding surface Corning 384-well microplate (Corning Catalog #3820), 5 nL of compound (2000 fold dilution in final assay volume of 10 μL) was dispensed, followed by the addition of 7.5 μL of 1× kinase buffer (50 mM Hepes 7.5, 10 mM MgCl2, 0.01% Brij-35, 1 mM EGTA, 0.05% BSA & 1 mM DTT) containing 5.09 pg/μL (66.67 pM) of BTK enzyme (recombinant protein from baculovirus-transfected Sf9 cells: full-length BTK, 6HIS-tag cleaved). Following a 60 minute compound & enzyme incubation, each reaction was initiated by the addition of 2.5 μL 1× kinase buffer containing 8 μM biotinylated “A5” peptide (Biotin-EQEDEPEGDYFEWLE-NH2) (SEQ.ID.NO.: 1), and 100 μM ATP. The final reaction in each well of 10 μL consists of 50 pM hBTK, 2 μM biotin-A5-peptide, and 25 μM ATP. Phosphorylation reactions were allowed to proceed for 120 minutes. Reactions were immediately quenched by the addition of 20 uL of 1× quench buffer (15 mM EDTA, 25 mM Hepes 7.3, and 0.1% Triton X-100) containing detection reagents (0.626 nM of LANCE-Eu-W1024-anti-phosphoTyrosine antibody, PerkinElmer and 86.8 nM of Streptavidin-conjugated Dylight 650, Dyomics/ThermoFisher Scientific). After 60 minutes incubation with detection reagents, reaction plates were read on a PerkinElmer EnVision plate reader using standard TR-FRET protocol. Briefly, excitation of donor molecules (Eu-chelate:anti-phospho-antibody) with a laser light source at 337 nm produces energy that can be transferred to Dylight-650 acceptor molecules if this donor:acceptor pair is within close proximity. Fluorescence intensity at both 665 nm (acceptor) and 615 nm (donor) are measured and a TR-FRET ratio calculated for each well (acceptor intensity/donor intensity). IC50 values were determined by 4 parameter robust fit of TR-FRET ratio values vs. (Log10) compound concentrations.
The following Table 3 provides specific IC50 values for all the examples. The IC50 values set forth below were determined according to Assay method described above.
(TR-FRET usually uses a lanthanide donor and a delayed reading to cut background.)

T1 sequence (Q06187 whole entry): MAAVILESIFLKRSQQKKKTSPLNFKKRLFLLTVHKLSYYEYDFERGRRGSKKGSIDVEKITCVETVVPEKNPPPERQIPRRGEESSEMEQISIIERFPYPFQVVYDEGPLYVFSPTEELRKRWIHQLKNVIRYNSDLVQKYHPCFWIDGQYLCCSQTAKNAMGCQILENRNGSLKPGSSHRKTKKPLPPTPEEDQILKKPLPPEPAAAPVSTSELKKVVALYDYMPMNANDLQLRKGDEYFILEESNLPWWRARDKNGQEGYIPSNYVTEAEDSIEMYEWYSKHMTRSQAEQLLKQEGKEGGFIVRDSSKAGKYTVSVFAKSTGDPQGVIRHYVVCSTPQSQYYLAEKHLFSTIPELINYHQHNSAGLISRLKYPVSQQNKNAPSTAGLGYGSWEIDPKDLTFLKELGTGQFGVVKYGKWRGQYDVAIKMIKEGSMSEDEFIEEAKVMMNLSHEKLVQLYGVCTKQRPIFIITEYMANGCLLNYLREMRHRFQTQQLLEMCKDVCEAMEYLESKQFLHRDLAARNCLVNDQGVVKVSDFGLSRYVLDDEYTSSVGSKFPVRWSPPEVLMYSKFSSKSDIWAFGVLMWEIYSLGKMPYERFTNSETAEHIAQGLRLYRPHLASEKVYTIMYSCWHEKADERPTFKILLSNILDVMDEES

For `Nc1nccn2c([C@@H]3CCC[C@@H](C(=O)O)C3)nc(-c3ccc(Oc4ccccc4)cc3)c12` (relative stereo) [Example 30, Trans-3-(8-amino-1-(4-phenoxyphenyl)imidazo[1,5-a]pyrazin-3-yl)cyclohexanecarboxylic acid], the pIC50 (usually −log10 of the IC50, conventionally taken in molar units) is 9.74. In the case of `Nc1nccn2c(C3CCC(C(=O)O)O3)nc(-c3ccc(Oc4ccccc4)cc3)c12` (single isomer, unassigned) [Example 26, 5-[8-amino-1-(4-phenoxyphenyl)imidazo[1,5-a]pyrazin-3-yl]tetrahydrofuran-2-carboxylic acid (E1)], the pIC50 is 7.90.

As for `Nc1nccn2c(C3CCC(C(=O)O)O3)nc(-c3ccc(Oc4ccccc4)cc3)c12` (single isomer, unassigned) [Example 27, 5-[8-amino-1-(4-phenoxyphenyl)imidazo[1,5-a]pyrazin-3-yl]tetrahydrofuran-2-carboxylic acid (E2)], the pIC50 was 7.90.

With `CC1(C(=O)O)CCC(C)(c2nc(-c3ccc(Oc4ccccc4)cc3)c3c(N)nccn23)C1` (single isomer, unassigned) [Example 28, 3-[8-amino-1-(4-phenoxyphenyl)imidazo[1,5-a]pyrazin-3-yl]-1,3-dimethylcyclo-pentanecarboxylic acid (E1)], the pIC50 was 9.64. Turning to `CC1(C(=O)O)CCC(C)(c2nc(-c3ccc(Oc4ccccc4)cc3)c3c(N)nccn23)C1` (single isomer, unassigned) [Example 29, 3-[8-amino-1-(4-phenoxyphenyl)imidazo[1,5-a]pyrazin-3-yl]-1,3-dimethylcyclo-pentanecarboxylic acid (E2)], the pIC50 is 8.89. Under `CC(C)[C@@]1(C(=O)O)CCC(c2nc(-c3ccc(Oc4cccc(F)c4)cc3)c3c(N)nccn23)C1` (stereo in doubt) [Example 4, (1R,3S)-3-{8-amino-1-[4-(3-fluorophenoxy)phenyl]imidazo[1,5-a]pyrazin-3-yl}-1-(1-methylethyl)cyclo-pentanecarboxylic acid] stands 8.36; under `CC(C)C1(C(=O)O)CC[C@H](c2nc(-c3ccc(Oc4cccc(F)c4)cc3)c3c(N)nccn23)C1` (stereo in doubt) [Example 5, (1R,3S)-3-{8-amino-1-[4-(3-fluorophenoxy)phenyl]imidazo[1,5-a]pyrazin-3-yl}-1-(1-methylethyl)cyclo-pentanecarboxylic acid], 8.85; under `Nc1nccn2c(N3CCC[C@H](C(=O)O)C3)nc(-c3ccc(Oc4ccccc4)cc3)c12` [Example 1, (S)-1-(8-amino-1-(4-phenoxyphenyl)imidazo[1,5-a]pyrazin-3-yl)piperidine-3-carboxylic acid], 8.57.

`CC(C)[C@]1(C(=O)O)CC[C@@H](c2nc(-c3ccc(Oc4cccc(F)c4)cc3)c3c(N)nccn23)C1` [Example 2, (1S,3R)-3-{8-amino-1-[4-(3-fluorophenoxy)phenyl]imidazo[1,5-a]pyrazin-3-yl}-1-(1-methylethyl)cyclo-pentanecarboxylic acid]: the pIC50 is 8.70.

With `CC(C)[C@@]1(C(=O)O)CC[C@H](c2nc(-c3ccc(Oc4cccc(F)c4)cc3)c3c(N)nccn23)C1` [Example 3, (1R,3S)-3-{8-amino-1-[4-(3-fluorophenoxy)phenyl]imidazo[1,5-a]pyrazin-3-yl}-1-(1-methylethyl)cyclo-pentanecarboxylic acid], the pIC50 is 7.71.

Turning to `Nc1nccn2c(C34CCC(C(=O)O)(CC3)CC4)nc(-c3ccc(Oc4ccccc4)cc3)c12` [Example 6, 4-[8-amino-1-(4-phenoxyphenyl)imidazo[1,5-a]pyrazin-3-yl]bicyclo[2.2.2]octane-1-carboxylic acid], the pIC50 was 10.05. In the case of `CC(C)(C(=O)O)C1CCC(c2nc(-c3ccc(Oc4ccccc4)cc3)c3c(N)nccn23)C1` (centres unmarked) [Example 7, 2-{3-[8-amino-1-(4-phenoxyphenyl)imidazo[1,5-a]pyrazin-3-yl]cyclopentyl}-2-methylpropanoic acid], the pIC50 was 8.68. For the compound `CC1(C)[C@@H](c2nc(-c3ccc(Oc4ccccc4)cc3)c3c(N)nccn23)CC[C@@]1(C)C(=O)O` [Example 8, (1R,3S)-3-[8-amino-1-(4-phenoxyphenyl)imidazo [1,5-a]pyrazin-3-yl]-1,2,2-trimethylcyclopenta-carboxylic acid], the pIC50 was 9.15. In the case of `Nc1nccn2c([C@@H]3CCC[C@H](C(=O)O)C3)nc(-c3ccc(Oc4ccccc4)cc3)c12` [Example 9, (1S,3R)-3-[8-amino-1-(4-phenoxyphenyl)imidazo[1,5-a]pyrazin-3-yl]cyclohexanecarboxylic acid], the pIC50 is 8.15. Under `CC1(C(=O)O)CCCC(c2nc(-c3ccc(Oc4ccccc4)cc3)c3c(N)nccn23)C1` (centres unmarked) [Example 10, 3-[8-amino-1-(4-phenoxyphenyl)imidazo [1,5-a]pyrazin-3-yl]-1-mehtylcyclohexane-carboxylic acid] stands 8.80. With `Nc1nccn2c1c(-c1ccc(Oc3cccc(F)c3)cc1)nc2[C@H]1CC[C@@H](C(=O)O)CC1` [Example 11, cis-4-{8-amino-1-[4-(3-fluorophenoxy)phenyl]imidazo[1,5-a]pyrazin-3-yl}cyclohexanecarboxylic acid], the pIC50 was 7.84. Turning to `Nc1nccn2c1c(-c1ccc(Oc3cccc(F)c3)cc1)nc2[C@H]1CC[C@H](C(=O)O)CC1` [Example 12, trans-4-{8-amino-1-[4-(3-fluorophenoxy)phenyl]imidazo[1,5-a]pyrazin-3-yl}cyclohexanecarboxylic acid], the pIC50 is 9.00.

For the compound `C[C@]1(C(=O)O)CCC[C@@H](c2nc(-c3ccc(Oc4cccc(F)c4)cc3)c3c(N)nccn23)C1` [Example 13, (1S,3R)-3-{8-amino-1-[4-(3-fluorophenoxy)phenyl]imidazo[1,5-a]pyrazin-3-yl}-1-methylcyclohexanecarboxylic acid], the pIC50 is 8.23. As for `C[C@]1(C(=O)O)CCC[C@@H](c2nc(-c3ccc(Oc4ccccc4)cc3)c3c(N)nccn23)C1` [Example 14, (1S,3R)-3-[8-amino-1-(4-phenoxyphenyl)imidazo [1,5-a]pyrazin-3-yl]-1-methylcyclohexane-carboxylic acid], the pIC50 is 8.62. As for `C[C@@]1(C(=O)O)CCC[C@H](c2nc(-c3ccc(Oc4ccccc4)cc3)c3c(N)nccn23)C1` [Example 15, (1R,3S)-3-[8-amino-1-(4-phenoxyphenyl)imidazo [1,5-a]pyrazin-3-yl]-1-methylcyclohexane-carboxylic acid], the pIC50 was 8.89. Then `C[C@@]1(C(=O)O)CCC[C@H](c2nc(-c3ccc(Oc4cccc(F)c4)cc3)c3c(N)nccn23)C1` [Example 16, (1R,3S)-3-{8-amino-1-[4-(3-fluorophenoxy)phenyl]imidazo[1,5-a]pyrazin-3-yl}-1-methylcyclohexane-carboxylic acid], with 8.48; and `Nc1nccn2c1c(-c1ccc(Oc3ccccc3)cc1)nc2[C@H]1CC[C@H](C(=O)O)CC1` [Example 17, trans-4-[8-amino-1-(4-phenoxyphenyl)imidazo [1,5-a]pyrazin-3-yl]cyclohexane-carboxylic acid], with 9.30; and `CC1(C)[C@@H](C(=O)O)C[C@H]1c1nc(-c2ccc(Oc3ccccc3)cc2)c2c(N)nccn12` [Example 18, (1 S,3R)-3-(8-amino-1-(4-phenoxyphenyl)imidazo[1,5-a]pyrazin-3-1)-2,2-dimethylcyclobutanecarboxylic acid], with 8.46. Take `CCC[C@]1(C(=O)O)CCC[C@@H](c2nc(-c3ccc(Oc4ccccc4)cc3)c3c(N)nccn23)C1` [Example 19, (1S,3R)-3-[8-amino-1-(4-pheenoxyphenyl)imidazo[1,5-a]pyrazin-3-yl]-1-propylcyclohexane-carboxylic acid]: the pIC50 was 6.70.

As for `CCC[C@@]1(C(=O)O)CCC[C@@H](c2nc(-c3ccc(Oc4ccccc4)cc3)c3c(N)nccn23)C1` [Example 20, (1R,3R)-3-[8-amino-1-(4-phenoxyphenyl)imidazo[1,5-a]pyrazin-3-yl]-1-propylcyclohexane-carboxylic acid], the pIC50 is 8.31. Under `Nc1nccn2c(C34CCCC(C(=O)O)(CC3)CC4)nc(-c3ccc(Oc4ccccc4)cc3)c12` [Example 21, 5-[8-amino-1-(4-phenoxyphenyl)imidazo[1,5-a]pyrazin-3-yl]bicyclo[3.2.2] nonane-1-carboxylic acid] stands 9.85.
